Reference: patent publication US20230365617A1, “SAPONIN DERIVATIVES FOR USE IN MEDICINE” (priority 2020, published 2023)
Like-named read-outs stand apart in the source and are kept apart here.

Tests used:
[1] = test system: A431 cells (EGFR expressing); assay: Cell viability, saponin titration with or without […] EGFdianthin; assay type: cell-based, human
HeLa cells [2] = assay: Pilot cell killing bioassay, saponin with or without 1.5 pM dianthin-EGF, 72 h; assay type: cell-based, human; set-up: key: Cell killing activity (+ or -); Cell killing activity (+ or -)
Procedure: HeLa cells were incubated for 72 h with the following constructs and cell viability before and after the 72 h-incubation was assessed. In the experiments, cells were exposed to 1.5 pM dianthin-EGF conjugate. A negative control were cells incubated with buffer vehicle and 10 microgram/ml saponin, without dianthin-EGF. Cell viability was set to 100% for the control in which both saponin and EGF-dianthin were omitted. […] Cell viability after 72 h was essentially 0%. For the chemically modified saponin variants, 10 microgram/ml saponin was tested in combination with 1.5 pM dianthin-EGF.

HeLa cells [3] = assay: cells; assay type: cell-based, human
Procedure: (§1) (FIGS. 66A and 66B). Next toxicity was determined, for this the modified saponins were titrated on HeLa and A431 cells. […] Next toxicity was determined, for this the modified saponins were titrated on HeLa and A431 cells.

A431 cells = assay: cells; assay type: cell-based; conditions: Homo sapiens, A-431, saponin alone, read-out: IC50 toxicity on A431 cells
Procedure: as §1

human red blood cells = assay: cells; assay type: cell-based; conditions: Erythrocyte
Procedure: (§2) Cells were pelleted by centrifugation for 10 min, 800xg at RT.

in vitro = assay type: cell-based, human; conditions: human red blood cells; read-out: IC50 hemolytic activity
Procedure: as §2

[4] = Critical micellar concentration (CMC) by ANS fluorescence; assay type: physicochemical; conditions: for CMC compared with the corresponding native/underivatised saponin: qualitative
Procedure: The critical micellar concentration (CMC) of saponins derived from Saponaria officinalis (SO) (Table A7) and derived from Quillaja saponaria (QS) (Table A8, and Table A9) was determined by the method of DeVendittis et al. (A fluorimetric method for the estimation of the critical micelle concentration of surfactants, Analytical Biochemistry, Volume 115, Issue 2, August 1981, Pages 278-286) as follows:
The emission spectrum of 8-Anilinonaphthalene-1-sulfonic acid (ANS) in either purified water (MQ) or PBS (Dulbecco’s PBS +/+) was determined at dry weight concentrations of saponins ranging from 1 to 1400 µM to cover the range below and above the CMC. Above the CMC, the fluorescence yield of ANS increases and the wavelength of maximum emission decreases due to portioning of the fluorescent dye into micelles. Fluorescence yields were recorded on a Fluoroskan Ascent FL (Thermo Scientific) at an excitation wavelength of 355 nm, and an emission wavelength of 460 nm. 6 µg at a concentration of 75.86 µM of ANS were used per sample and measurement.
The critical micellar concentration (CMC) of saponins was determined by the method of DeVendittis et al. (A fluorimetric method for the estimation of the critical micelle concentration of surfactants, Analytical Biochemistry, Volume 115, Issue 2, August 1981, Pages 278-286) as follows: […]

[5] = test system: A2058 cells (EGFR non-expressing); assay: Cell viability, saponin titration with or without […] EGFdianthin; assay type: cell-based, human; conditions: saponin as single compound
[6] = 10 µg/ml SO1861 or SO1861-derivative alone
[7] = SO saponins, determined in PBS (Table A7)
[8] = 10 µg/ml SO1861 or SO1861-derivative + […] EGFdianthin
[9] = HeLa cells, saponin alone (Table A5), read-out: IC50 nM (Toxicity)
[10] = SO1831 and Aescin, determined in PBS (Table A11)

CC(=O)OC1C(C)OC(OC2C(C)OC(OC(=O)C34CCC(C)(C)CC3C3=CCC5C6(C)CCC(OC7OC(C(=O)O)C(O)C(OC8OCC(O)C(O)C8O)C7OC7OC(CO)C(O)C(O)C7O)C(C)(C=NNC(=O)CCOCCOCCOCCOCCN=[N+]=[N-])C6CCC5(C)C3(C)CC4O)C(OC3OC(C)C(OC4OCC(O)C(OC5OC(CO)C(O)C(O)C5O)C4O)C(O)C3O)C2O)C(O)C1OC1OCC(O)C(O)C1O (stereo not shown)
IC50 ([1]; read-out: general toxicity in absence of EGFdianthin, saponin as single compound): > 10 µM
Cell killing activity (+ or -) (HeLa cells [2]; [6]): -

CC[C@H](C)[C@H](C[C@H](O)CC(=O)OC1C(C)OC(OC(=O)[C@]23CCC(C)(C)CC2C2=CCC4[C@@]5(C)CC[C@H](OC6OC(C(=O)NC(C)(CO)CO)C(O)C(OC7OCC(O)C(O)C7O)C6OC6OC(CO)C(O)C(O)C6O)[C@@](C)(/C=N/NC(=O)CCCCCN6C(=O)C=CC6=O)C5CC[C@@]4(C)[C@]2(C)C[C@H]3O)C(OC2OC(C)C(OC3OCC(O)C(OC4OCC(O)(CO)C4O)C3O)C(O)C2O)C1O)OC(=O)C[C@@H](O)C[C@H](OC1OC(CO)C(O)C1O)[C@@H](C)CC (stereo partly shown) [QS21-(Ald-EMCH)-(Glu-AMPD)]
IC50 (HeLa cells [3]; Homo sapiens, HeLa cells (Table A12, Example 8), read-out: IC50 nM (Toxicity)): > 30000 nM
IC50 (HeLa cells [3]; Homo sapiens, HeLa, saponin alone, read-out: IC50 toxicity on HeLa cells): > 30000 nM
IC50 (A431 cells): > 30 µM
IC50 (human red blood cells; human red blood cells (Table A12, Example 8), read-out: IC50 nM (hemolysis)): > 300000 nM
IC50 (human red blood cells; human red blood cells, read-out: IC50 hemolytic activity): > 300000 nM
HC50 (in vitro): > 1 mM

CC[C@H](C)[C@H](C[C@H](O)CC(=O)OC1C(C)OC(OC(=O)[C@]23CCC(C)(C)CC2C2=CCC4[C@@]5(C)CC[C@H](OC6OC(C(=O)O)C(O)C(OC7OCC(O)C(O)C7O)C6OC6OC(CO)C(O)C(O)C6O)[C@@](C)(/C=N/NC(=O)CCCCCN6C(=O)C=CC6=O)C5CC[C@@]4(C)[C@]2(C)C[C@H]3O)C(OC2OC(C)C(OC3OCC(O)C(OC4OCC(O)(CO)C4O)C3O)C(O)C2O)C1O)OC(=O)C[C@@H](O)C[C@H](OC1OC(CO)C(O)C1O)[C@@H](C)CC (stereo partly shown) [QS21-Ald-EMCH]
IC50 (HeLa cells [3]; Homo sapiens, HeLa, read-out: IC50 nM (Toxicity), HeLa cells (Table A12, Example 8)): > 30000 nM
IC50 (human red blood cells; Homo sapiens, read-out: IC50 hemolytic activity, human red blood cells): 30000 nM

CC(=O)OC1C(C)OC(OC2C(C)OC(OC(=O)[C@]34CCC(C)(C)CC3C3=CCC5[C@@]6(C)CC[C@H](OC7OC(C(=O)O)C(O)C(OC8OCC(O)C(O)C8O)C7OC7OC(CO)C(O)C(O)C7O)[C@@](C)(C=O)C6CC[C@@]5(C)[C@]3(C)C[C@H]4O)C(OC3OC(C)C(OC4OCC(O)C(OC5OC(CO)C(O)C(O)C5O)C4O)C(O)C3O)C2O)C(O)C1OC1OCC(O)C(O)C1O (stereo partly shown) [SO1861, reference compound]
general toxicity in absence of EGFdianthin ([1]; saponin as single compound): strong cell viability reduction
CMC ([4]; SO1861 saponins): 185 µM
CMC [4, 7]: 185 ± 19 µM
general toxicity in absence of EGFdianthin [5]: strong cell viability reduction
Cell killing activity (+ or -) (HeLa cells [2]; [8]): +
Cell killing activity (+ or -) (HeLa cells [2]; [6]): -

CC(=O)OC1C(C)OC(OC2C(C)OC(OC(=O)C34CCC(C)(C)CC3C3=CCC5C6(C)CCC(OC7OC(C(=O)NC(C)(CO)CO)C(O)C(OC8OCC(O)C(O)C8O)C7OC7OC(CO)C(O)C(O)C7O)C(C)(C=NNC(=O)CCCCCN7C(=O)C=CC7=O)C6CCC5(C)C3(C)CC4O)C(OC3OC(C)C(OC4OCC(O)C(OC5OC(CO)C(O)C(O)C5O)C4O)C(O)C3O)C2O)C(O)C1OC1OCC(O)C(O)C1O (stereo not shown) [SO1861-(Ald-EMCH)-(Glu-AMPD)]
CMC [4, 7]: > 30 µM
CMC compared with the corresponding native/underivatised saponin [4]: lower CMC values

CC(=O)OC1C(C)OC(OC2C(C)OC(OC(=O)[C@]34CCC(C)(C)CC3C3=CCC5[C@@]6(C)CC[C@H](OC7OC(C(=O)NC(C)(CO)CO)C(O)C(OC8OCC(O)C(O)C8O)C7OC7OC(CO)C(O)C(O)C7O)[C@@](C)(CO)C6CC[C@@]5(C)[C@]3(C)C[C@H]4O)C(OC3OC(C)C(OC4OCC(O)C(OC5OC(CO)C(O)C(O)C5O)C4O)C(O)C3O)C2O)C(O)C1OC1OCC(O)C(O)C1O (stereo partly shown) [SO1861-(Ald-OH)-(Glu-AMPD)]
CMC [4, 7]: 50 ± 5 µM
CMC compared with the corresponding native/underivatised saponin [4]: lower CMC values

CC(=O)OC1C(C)OC(OC2C(C)OC(OC(=O)[C@]34CCC(C)(C)CC3C3=CCC5[C@@]6(C)CC[C@H](OC7OC(C(=O)NCCN8C(=O)C=CC8=O)C(O)C(OC8OCC(O)C(O)C8O)C7OC7OC(CO)C(O)C(O)C7O)[C@@](C)(CO)C6CC[C@@]5(C)[C@]3(C)C[C@H]4O)C(OC3OC(C)C(OC4OCC(O)C(OC5OC(CO)C(O)C(O)C5O)C4O)C(O)C3O)C2O)C(O)C1OC1OCC(O)C(O)C1O (stereo partly shown) [SO1861-(Glu-AEM)-(Ald-OH)]
CMC [4, 7]: 90 ± 10 µM
CMC compared with the corresponding native/underivatised saponin [4]: lower CMC values

CC(=O)OC1C(C)OC(OC2C(C)OC(OC(=O)[C@]34CCC(C)(C)CC3C3=CCC5[C@@]6(C)CC[C@H](OC7OC(C(=O)O)C(O)C(OC8OCC(O)C(O)C8O)C7OC7OC(CO)C(O)C(O)C7O)[C@@](C)(/C=N/NC(=O)CCCCCN7C(=O)C[C@H](SCCO)C7=O)C6CC[C@@]5(C)[C@]3(C)CC4O)C(OC3OC(C)C(OC4OCC(O)C(OC5OC(CO)C(O)C(O)C5O)C4O)C(O)C3O)C2O)C(O)C1OC1OCC(O)C(O)C1O (stereo partly shown) [SO1861-Ald-EMCH-blocked]
IC50 (HeLa cells [3]; [9]): > 100000 nM
CMC [4, 7]: 50 ± 5 µM

CC(=O)OC1C(C)OC(OC2C(C)OC(OC(=O)[C@]34CCC(C)(C)CC3C3=CCC5[C@@]6(C)CC[C@H](OC7OC(C(=O)O)C(O)C(OC8OCC(O)C(O)C8O)C7OC7OC(CO)C(O)C(O)C7O)[C@@](C)(CO)C6CC[C@@]5(C)[C@]3(C)C[C@H]4O)C(OC3OC(C)C(OC4OCC(O)C(OC5OC(CO)C(O)C(O)C5O)C4O)C(O)C3O)C2O)C(O)C1OC1OCC(O)C(O)C1O (stereo partly shown) [SO1861-Ald-OH]
CMC [4, 7]: 135 ± 14 µM
CMC compared with the corresponding native/underivatised saponin [4]: higher CMC values
CMC compared with the corresponding native/underivatised saponin ([4]; listed as 6): increased CMC

CC(=O)OC1C(C)OC(OC2C(C)OC(OC(=O)[C@]34CCC(C)(C)CC3C3=CCC5[C@@]6(C)CC[C@H](OC7OC(C(=O)NCCN8C(=O)C=CC8=O)C(O)C(OC8OCC(O)C(O)C8O)C7OC7OC(CO)C(O)C(O)C7O)[C@@](C)(C=O)C6CC[C@@]5(C)[C@]3(C)C[C@H]4O)C(OC3OC(C)C(OC4OCC(O)C(OC5OC(CO)C(O)C(O)C5O)C4O)C(O)C3O)C2O)C(O)C1OC1OCC(O)C(O)C1O (stereo partly shown) [SO1861-Glu-AEM]
IC50 (HeLa cells [3]; [9]): > 100000 nM
CMC [4, 7]: 45 ± 5 µM
CMC compared with the corresponding native/underivatised saponin [4]: lower CMC values

CC(=O)OC1C(C)OC(OC2C(C)OC(OC(=O)[C@]34CCC(C)(C)CC3C3=CCC5[C@@]6(C)CC[C@H](OC7OC(C(=O)NC(C)(CO)CO)C(O)C(OC8OCC(O)C(O)C8O)C7OC7OC(CO)C(O)C(O)C7O)[C@@](C)(C=O)C6CC[C@@]5(C)[C@]3(C)C[C@H]4O)C(OC3OC(C)C(OC4OCC(O)C(OC5OC(CO)C(O)C(O)C5O)C4O)C(O)C3O)C2O)C(O)C1OC1OC(C)C(O)C(O)C1O (stereo partly shown) [SO1861-Glu-AMPD]
CMC [4, 7]: 50 ± 5 µM
CMC compared with the corresponding native/underivatised saponin [4]: lower CMC values

CC(=O)On1nnc2cccnc21 [SO1861-Glu-HATU]
Cell killing activity (+ or -) (HeLa cells [2]; [8]): +
Cell killing activity (+ or -) (HeLa cells [2]; [6]): -

Aescin [Aescin (95%), reference compound]
CMC [4, 10]: 130 ± 13 µM

Aescin [Aescin (98%), reference compound]
CMC [4, 10]: 135 ± 14 µM

QS21 [reference compound]
CMC ([4]; QS saponins (Table A8, MQ)): 49 µM
CMC ([4]; QS saponins, determined in purified water (MQ) (Table A8)): 49 ± 5 µM
CMC ([4]; in MQ (Table A9)): 49 ± 5 µM
CMC ([4]; modified QS21 saponins, determined in PBS (Table A9)): 40 ± 5 µM
